# Data: patent publication US20110201648A1, “POLY-HETEROARYL DERIVATIVES FOR THE TREATMENT OF CANCER” (INSTITUT CURIE, priority 2008, published 2011)
row,melting point,Compound
1,242 to 245 °C,"c1ccc(-c2ncc(-c3cccc(-c4cnc(-c5ccccn5)o4)n3)o2)nc1 [compound 1, 2,6-Bis[2-(pyridin-2-yl)oxazol-5-yl]pyridine]"
2,> 250 °C,"c1cc(-c2cnc(-c3cccc(-c4cnco4)n3)o2)cc(-c2cnc(-c3cccc(-c4cnco4)n3)o2)c1 [compound 4, 1,3-Bis(2-(6-(oxazol-5-yl)pyridin-2-yl)oxazol-5-yl)benzene]"
3,254 to 256 °C,"c1cc(-c2cnco2)cc(-c2ncc(-c3cccc(-c4cnc(-c5cccc(-c6cnco6)c5)o4)n3)o2)c1 [compound 5, 2,6-Bis(2-(3-(oxazol-5-yl)phenyl)oxazol-5-yl)pyridine]"
4,> 250 °C,"c1cc(-c2cnc(-c3ccc(-c4cnco4)o3)o2)nc(-c2cnc(-c3ccc(-c4cnco4)o3)o2)c1 [compound 6, 2,6-Bis(2-(5-(oxazol-5-yl)furan-2-yl)oxazol-5-yl)pyridine]"
